Laboratory results published in patent publication US9422274B2, “Oxazolidinone derivatives and composition for preventing or treating hepatitis C containing the same” (KOREA INSTITUTE OF SCIENCE AND TECHNOLOGY, priority 2013, dated 2016).

Experiments:
Hepatitis C virus [1] = assay: Anti-viral activity test (HCVcc, Type 2a), JFH 5a-Rluc luciferase in Huh7.5.1 cell line; format: cell-based; conditions: for inhibition: Huh-7.5.1, luciferase activity, negative control = 100%, Huh7.5.1 cells infected with JFH 5a-Rluc, read-out: HCV inhibition rate %; for EC50: Huh-7.5.1, read-out: EC50 (concentration of compound to inhibit the 50% of viral growth)
Experimental: The inhibitory effect of the oxazolidinone compounds on HCV replicon and NS5A were HCV was tested by the method disclosed in KR-A 10-2010-0007937 or US-A 2010/0215696.
The cell lines containing replicon were prepared by preparing JFH 5a-Rluc (plasmid expressing Renilla luciferase reporter protein) RNA according to the method disclosed in the documents, introducing the JFH 5a-Rluc RNA into host cell lines (Huh7.5.1 cell line) by electroporation and infecting the host cell lines (Zhnog et al., Proc. Natl. Acad. Sci. USA, 102, 9294-9299). After the infected cell lines were cultured with or without the treatment of the oxazolidinone compound, the luciferase activity was detected to obtain the inhibitory effect of […] replicon replication. EC50) of the compound was determined by performing the test at various concentrations of the compound.
The compounds Example 1 to 17 were tested for anti-viral activity on Hepatitis C virus, according to the method of KR10-2010-0007937 (published on Jan. 22, 2010) or US2010/0215696 (published on Aug. 26, 2010).
The cell lines containing replicon were prepared by preparing JFH 5a-Rluc (plasmid expressing Renilla luciferase reporter protein) RNA according to the method disclosed in the documents, introducing the JFH 5a-Rluc RNA into host cell lines (Huh7.5.1 cell line) by electroporation and infecting the host cell lines (Zhnog et al., Proc. Natl. Acad. Sci. USA, 102, 9294-9299). After the infected cell lines were cultured with or without the treatment of 1 mM of the oxazolidinone compounds of Examples 1 to 17, the host cell lines were obtained on 1, 2 and 3 days after treatment, and the luciferase activity produced from the host cells was measured.
The luciferase activity of negative control which was not treated with the oxazolidinone compound is set to 100%. At various amounts of the oxazolidinone compounds, the luciferase activities were calculated based on the negative control to obtain the inhibition rate of HCV (%). The positive control was Interferon (INF)(Sigma, SRP4595).

Hepatitis C virus [2] = assay: as above; format: cell-based, Hepatitis C virus (HCVcc; conditions: for inhibition at 0.001 µM: Hepatitis C virus, Huh-7.5.1, read-out: inhibition rate; for remnant HCV amount: treated at a concentration of 1 nM

Compound	inhibition (Hepatitis C virus [1]) [%]	inhibition at 0.001 µM (Hepatitis C virus [2]) [%]	remnant HCV amount (Hepatitis C virus [2]) [%]	EC50 (Hepatitis C virus [1]) [nM]
CC(C)(C)OC(=O)N1CCC[C@H]1c1ncc(-c2ccc(-c3ccc(N4C[C@H](Cn5ccnn5)OC4=O)cc3F)cc2)[nH]1 [Example 1, tert-Butyl(S)-2-(5-(4′-((R)-5-((1H-1,2,3-triazol-1-yl)methyl)-2-oxooxazolidin-3-yl)-2′-fluoro-[1,1′-biphenyl]-4-yl)-1H-imidazol-2-yl)pyrrolidine-1-carboxylate]	31.7	–	–	–
CC(=O)N1CCC[C@H]1c1ncc(-c2ccc(-c3ccc(N4C[C@H](Cn5ccnn5)OC4=O)cc3F)cc2)[nH]1 [Example 2, (R)-5-((1H-1,2,3-Triazol-1-yl)methyl)-3-(4′-(2-((S)-1-acetylpyrrolidin-2-yl)-1H-imidazol-5-yl)-2-fluoro-[1,1′-biphenyl]-4-yl)oxazolidin-2-one]	32	–	–	–
COC(=O)N[C@H](C(=O)N1CCC[C@H]1c1ncc(-c2ccc(-c3ccc(N4C[C@H](Cn5ccnn5)OC4=O)cc3F)cc2)[nH]1)C(C)C [Example 3, Methyl ((S)-1-((S)-2-(5-(4′-((R)-5-((1H-1,2,3-triazol-1-yl)methyl)-2-oxooxazolidin-3-yl)-2′-fluoro-[1,1′-biphenyl]-4-yl)-1H-imidazol-2-yl)pyrrolidin-1-yl)-3-methyl-1-oxobutan-2-yl)carbamate]	99.8	78.9	21.1	0.98
COC(=O)N[C@H](C(=O)N1CCC[C@H]1c1ncc(-c2ccc(-c3ccc(N4C[C@H](Cn5ccnn5)OC4=O)cc3F)cc2)[nH]1)c1ccccc1 [Example 4, methyl ((S)-2-((S)-2-(5-(4′-((R)-5-((1H-1,2,3-triazol-1-yl)methyl)-2-oxooxazolidin-3-yl)-2′-fluoro-[1,1′-biphenyl]-4-yl)-1H-imidazol-2-yl)pyrrolidin-1-yl)-2-oxo-1-phenylethyl)carbamate]	95.2	–	–	–
COC(=O)N[C@H](C(=O)N1CCC[C@H]1c1ncc(-c2ccc(-c3ccc(N4C[C@H](Cn5cc(CO)nn5)OC4=O)cc3F)cc2)[nH]1)C(C)C [Example 5, Methyl ((S)-1-((S)-2-(5-(2′-fluoro-4′-((R)-5-((4-(hydroxymethyl)-1H-1,2,3-triazol-1-yl)methyl)-2-oxooxazolidin-3-yl)-[1,1′-biphenyl]-4-yl)-1H-imidazol-2-yl)pyrrolidin-1-yl)-3-methyl-1-oxobutan-2-yl)carbamate]	95.8	–	–	–
COC(=O)N[C@H](C(=O)N1CCC[C@H]1c1ncc(-c2ccc(-c3ccc(N4C[C@H](Cn5cc(CCO)nn5)OC4=O)cc3F)cc2)[nH]1)C(C)C [Example 6, Methyl ((S)-1-((S)-2-(5-(2′-fluoro-4′-((R)-5-((4-(2-hydroxyethyl)-1H-1,2,3-triazol-1-yl)methyl)-2-oxooxazolidin-3-yl)-[1,1′-biphenyl]-4-yl)-1H-imidazol-2-yl)pyrrolidin-1-yl)-3-methyl-1-oxobutan-2-yl)carbamate]	84.4	–	–	–
COCc1cn(C[C@H]2CN(c3ccc(-c4ccc(-c5cnc([C@@H]6CCCN6C(=O)[C@@H](NC(=O)OC)C(C)C)[nH]5)cc4)c(F)c3)C(=O)O2)nn1 [Example 7, Methyl ((S)-1-((S)-2-(5-(2′-fluoro-4′-((R)-5-((4-(methoxymethyl)-1H-1,2,3-triazol-1-yl)methyl)-2-oxooxazolidin-3-yl)-[1,1′-biphenyl]-4-yl)-1H-imidazol-2-yl)pyrrolidin-1-yl)-3-methyl-1-oxobutan-2-yl)carbamate]	83.3	–	–	–
COC(=O)N[C@H](C(=O)N1CCC[C@H]1c1ncc(-c2ccc(-c3ccc(N4C[C@H](Cn5cc(COC(C)=O)nn5)OC4=O)cc3F)cc2)[nH]1)C(C)C [Example 8, 1-(((R)-3-(2-Fluoro-4′-(2-((S)-1-((methoxycarbonyl)-L-valyl)pyrrolidin-2-yl)-1H-imidazol-5-yl)-[1,1′-biphenyl]-4-yl)-2-oxooxazolidin-5-yl)methyl)-1H-1,2,3-triazol-4-yl)methyl acetate]	79.8	–	–	–
COC(=O)N[C@H](C(=O)N1CCC[C@H]1c1ncc(-c2ccc(-c3ccc(N4C[C@H](Cn5cc(COCc6ccccc6)nn5)OC4=O)cc3F)cc2)[nH]1)C(C)C [Example 9, Methyl ((S)-1-((S)-2-(5-(4′-((R)-5-((4-((benzyloxy)methyl)-1H-1,2,3-triazol-1-yl)methyl)-2-oxooxazolidin-3-yl)-2′-fluoro-[1,1′-biphenyl]-4-yl)-1H-imidazol-2-yl)pyrrolidin-1-yl)-3-methyl-1-oxobutan-2-yl)carbamate]	97.3	97	3.0	17.4
COC(=O)N[C@H](C(=O)N1CCC[C@H]1c1ncc(-c2ccc(-c3ccc(N4C[C@H](Cn5cc(CNC(C)=O)nn5)OC4=O)cc3F)cc2)[nH]1)C(C)C [Example 10, Methyl ((S)-1-((S)-2-(5-(4′-((R)-5-((4-(acetamidomethyl)-1H-1,2,3-triazol-1-yl)methyl)-2-oxooxazolidin-3-yl)-2′-fluoro-[1,1′-biphenyl]-4-yl)-1H-imidazol-2-yl)pyrrolidin-1-yl)-3-methyl-1-oxobutan-2-yl)carbamate]	32.8	–	–	–
COC(=O)N[C@H](C(=O)N1CCC[C@H]1c1ncc(-c2ccc(-c3ccc(N4C[C@H](Cn5cc(-c6ccccc6)nn5)OC4=O)cc3F)cc2)[nH]1)C(C)C [Example 11, Methyl ((S)-1-((S)-2-(5-(2′-fluoro-4′-((R)-2-oxo-5-((4-phenyl-1H-1,2,3-triazol-1-yl)methyl)oxazolidin-3-yl)-[1,1′-biphenyl]-4-yl)-1H-imidazol-2-yl)pyrrolidin-1-yl)-3-methyl-1-oxobutan-2-yl)carbamate]	96.7	95.2	6.8	–
COC(=O)N[C@H](C(=O)N1CCC[C@H]1c1ncc(-c2ccc(-c3ccc(N4C[C@H](CNC(C)=O)OC4=O)cc3F)cc2)[nH]1)C(C)C [Example 12, Methyl ((S)-1-((S)-2-(5-(4′-((S)-5-(acetamidomethyl)-2-oxooxazolidin-3-yl)-2′-fluoro-[1,1′-biphenyl]-4-yl)-1H-imidazol-2-yl)pyrrolidin-1-yl)-3-methyl-1-oxobutan-2-yl)carbamate]	99.8	27	73	–
CC(=O)NC[C@H]1CN(c2ccc(-c3ccc(-c4cnc([C@@H]5CCCN5C(=O)OC(C)(C)C)[nH]4)cc3)c(F)c2)C(=O)O1 [Example 13, tert-Butyl (S)-2-(5-(4′-((S)-5-(acetamidomethyl)-2-oxooxazolidin-3-yl)-2′-fluoro-[1,1′-biphenyl]-4-yl)-1H-imidazol-2-yl)pyrrolidine-1-carboxylate]	46.2	–	–	–
CC(=O)NC[C@H]1CN(c2ccc(-c3ccc(-c4cnc([C@@H]5CCCN5C(C)=O)[nH]4)cc3)c(F)c2)C(=O)O1 [Example 14, N—(((S)-3-(4′-(2-((S)-1-acetylpyrrolidin-2-yl)-H-imidazol-5-yl)-2-fluoro-[1,1′-biphenyl]-4-yl)-2-oxooxazolidin-5-yl)methyl)acetamide]	28	–	–	–
COC(=O)N[C@H](C(=O)NC[C@H]1CN(c2ccc(-c3ccc(-c4cnc([C@@H]5CCCN5C(=O)[C@@H](NC(=O)OC)C(C)C)[nH]4)cc3)c(F)c2)C(=O)O1)C(C)C [Example 15, Methyl ((S)-1-((((S)-3-(2-fluoro-4′-(2-((S)-1-((methoxycarbonyl)-L-valyl)pyrrolidin-2-yl)-1H-imidazol-5-yl)-[1,1′-biphenyl]-4-yl)-2-oxooxazolidin-5-yl)methyl)amino)-3-methyl-1-oxobutan-2-yl)carbamate]	99.8	44.3	55.7	1
COC(=O)N[C@H](C(=O)NC[C@H]1CN(c2ccc(-c3ccc(-c4cnc([C@@H]5CCCN5C(=O)OC(C)(C)C)[nH]4)cc3)c(F)c2)C(=O)O1)C(C)C [Example 16, tert-Butyl (S)-2-(5-(2′-fluoro-4′-((S)-5-(((S)-2-((methoxycarbonyl)amino)-3-methylbutanamido)methyl)-2-oxooxazolidin-3-yl)-[1,1-biphenyl]-4-yl)-1H-imidazol-2-yl)pyrrolidine-1-carboxylate]	58	–	–	–
COC(=O)N[C@H](C(=O)NC[C@H]1CN(c2ccc(-c3ccc(-c4cnc([C@@H]5CCCN5C(C)=O)[nH]4)cc3)c(F)c2)C(=O)O1)C(C)C [Example 17, Methyl ((S)-1-((((S)-3-(4′-(2-((S)-1-acetylpyrrolidin-2-yl)-1H-imidazol-5-yl)-2-fluoro-[1,1′-biphenyl]-4-yl)-2-oxooxazolidin-5-yl)methyl)amino)-3-methyl-1-oxobutan-2-yl)carbamate]	38.1	–	–	–
